These results are taken from patent US7345035B2, “Treatment of osteoporosis and autoimmune disease with astrogorgiadiol” (University of Delaware, priority 2003, dated 2008).

One assay relates to osteopontin mRNA. The assay is described as follows: Northern blot of osteopontin mRNA in ROS 17/2.8 cells. Format: cell-based. The protocol:
Changes in levels of mRNA encoding osteopontin induced by astrogorgiadiol were studied by Northern blot. Northern blot analysis was performed as described in Farach-Carson American Journal of Physiology 265: F705-F711 (1993), modified to include varying concentrations of astrogorgiadiol.
Briefly, […] cells were treated with 1 nM 1, 25 (OH)2vitD3 (BIOMOL Research Laboratories Inc., Plymouth Meeting, Pa.) or 1 nM 1, 25 (OH)2 vitD3 and 3 nM, 30 nM or 300 nM astrogorgiadiol for 0, 3 or 24 hours prior to harvest or with 3 nM, 30 nM or 300 nM astrogorgiadiol. mRNA was extracted using standard techniques. Osteopontin mRNA was detected using a ^32P-labeled osteopontin cDNA probe.

The subject of the next assay is starfish eggs. The settings on record: cited from earlier work.

`C=C1/C(=C\C=C2/CCC[C@]3(C)[C@@H]([C@H](C)CCCC(C)(C)O)CC[C@@H]23)C[C@@H](O)C[C@@H]1O` [1,25 (OH)2 vitD3, reference compound]: the “osteopontin mRNA level (Northern blot)” value with osteopontin mRNA (ROS 17/2.8 cells, 1 nM 1,25 (OH)2 vitD3, 0, 3 or 24 hours prior to harvest) is reported as “increased osteopontin mRNA”.
With `Cc1ccc(O)cc1CC[C@@H]1[C@H](O)CC[C@]2(C)[C@@H]([C@H](C)CCCC(C)C)CC[C@@H]12` [astrogorgiadiol, Astrogorgiadiol], the “cell division of starfish eggs” value with starfish eggs was “inhibit cell division of starfish eggs”. Further, in the assay with osteopontin mRNA (3 nM astrogorgiadiol with 1 nM 1,25 (OH)2 vitD3, ROS 17/2.8 cells), the “1,25 (OH)2 vitD3-induced osteopontin mRNA level (Northern blot)” value is reported as “decreased 1,25 (OH)2 vitD3-induced osteopontin mRNA to levels approaching control levels”. Also, the “osteopontin mRNA level (Northern blot)” value in the assay on osteopontin mRNA (30 nM astrogorgiadiol with 1 nM 1,25 (OH)2 vitD3, ROS 17/2.8 cells) is recorded as “decreased the level of osteopontin mRNA below control levels”; in the assay with osteopontin mRNA (300 nM astrogorgiadiol with 1 nM 1,25 (OH)2 vitD3, ROS 17/2.8 cells), “decreased the level of osteopontin mRNA below control levels”. Further, the “osteopontin mRNA level (Northern blot), dose dependence” value with osteopontin mRNA (ROS 17/2.8 cells, 3 nM, 30 nM or 300 nM astrogorgiadiol, with 1 nM 1,25 (OH)2 vitD3) is on record as “downregulated osteopontin mRNA in a dose-dependent manner”. Further, in the assay on osteopontin mRNA (in cells in vitro), the “concentration effective to downregulate osteopontin RNA production” value was 3 to 300 nM.
